Measurements reported in ChEMBL document CHEMBL1201862, “PubChem BioAssay data set” (2004).
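Growth conditions: 96-well plates. Treatment: test compound, 48 hours, 5 concentrations. Analysis: linear interpolation between bracketing concentrations; unreached endpoints set to highest concentration. Abbreviation: GI50, concentration required for 50% inhibition of growth.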 Calls of active or inactive are those of the source. Rule as the data show it: active = GI50 up to about 1.1 µM and inactive = higher.

Legend:
Experiment in all cases: NCI anticancer screen, dose series, 48 h
786-0 = tested on: 786-0
A498 = tested on: A498
A549 = tested on: A549
ACHN = tested on: ACHN
BT-549 = tested on: BT-549
CAKI-1 = tested on: CAKI-1
CCRF-CEM = tested on: CCRF-CEM
COLO 205 = tested on: COLO 205
DU-145 = tested on: DU-145
EKVX = tested on: EKVX
HCC 2998 = tested on: HCC 2998
HCT-116 = tested on: HCT-116
HCT-15 = tested on: HCT-15
HOP-62 = tested on: HOP-62
HT-29 = tested on: HT-29
Hs-578T = tested on: Hs-578T
IGROV-1 = tested on: IGROV-1
K562 = tested on: K562
KM12 = tested on: KM12
M14 = tested on: M14
MCF7 = tested on: MCF7
MDA-MB-231 = tested on: MDA-MB-231
MDA-MB-435 = tested on: MDA-MB-435
MDA-N = tested on: MDA-N
MOLT-4 = tested on: MOLT-4
Malme-3M = tested on: Malme-3M
NCI-H226 = tested on: NCI-H226
NCI-H23 = tested on: NCI-H23
NCI-H460 = tested on: NCI-H460
NCI-H522 = tested on: NCI-H522
NCI/ADR-RES = tested on: NCI/ADR-RES
OVCAR-3 = tested on: OVCAR-3
OVCAR-4 = tested on: OVCAR-4
OVCAR-5 = tested on: OVCAR-5
OVCAR-8 = tested on: OVCAR-8
PC-3 = tested on: PC-3
RPMI-8226 = tested on: RPMI-8226
RXF 393 = tested on: RXF 393
SF-268 = tested on: SF-268
SF-295 = tested on: SF-295
SF-539 = tested on: SF-539
SK-MEL-2 = tested on: SK-MEL-2
SK-MEL-5 = tested on: SK-MEL-5
SK-OV-3 = tested on: SK-OV-3
SN12C = tested on: SN12C
SNB-19 = tested on: SNB-19
SNB-75 = tested on: SNB-75
SR = tested on: SR
T47D = tested on: T47D
TK-10 = tested on: TK-10
U-251 = tested on: U-251
UACC-257 = tested on: UACC-257
UACC-62 = tested on: UACC-62
UO-31 = tested on: UO-31
HL-60 = tested on: HL-60
HOP-92 = tested on: HOP-92
LOX IMVI = tested on: LOX IMVI
SK-MEL-28 = tested on: SK-MEL-28
SW-620 = tested on: SW-620

Measured: GI50

Cc1cc(N(CCC#N)CCC#N)ccc1C(/N=N/c1ccc(Cl)cc1)=N\NC(=O)c1cc(Cl)ccc1O
inactive: 786-0 30.6 µM | A498 29.1 µM | A549 31.3 µM | ACHN 32.4 µM | BT-549 36.7 µM | CAKI-1 > 100 µM | CCRF-CEM 37 µM | COLO 205 47.9 µM | DU-145 > 100 µM | EKVX 36.4 µM | HCC 2998 29.9 µM | HCT-116 71.4 µM | HOP-62 20.5 µM | HT-29 45.9 µM | Hs-578T 19.5 µM | IGROV-1 30.6 µM | K562 76.2 µM | KM12 58.9 µM | M14 > 100 µM | MCF7 29.4 µM | MDA-MB-231 30.8 µM | MDA-MB-435 > 100 µM | MDA-N > 100 µM | MOLT-4 53.5 µM | Malme-3M 62.7 µM | NCI-H226 28.7 µM | NCI-H23 40.2 µM | NCI-H460 27.9 µM | NCI-H522 16.7 µM | NCI/ADR-RES 52.8 µM | OVCAR-3 19.1 µM | OVCAR-4 27.1 µM | OVCAR-5 > 100 µM | OVCAR-8 35.6 µM | PC-3 35.2 µM | RPMI-8226 > 100 µM | RXF 393 22.2 µM | SF-268 27.7 µM | SF-295 22.8 µM | SF-539 25 µM | SK-MEL-2 67 µM | SK-MEL-5 > 100 µM | SK-OV-3 34.8 µM | SN12C 70.5 µM | SNB-19 25.1 µM | SNB-75 30.1 µM | SR 38.7 µM | T47D 31.6 µM | TK-10 30 µM | U-251 37.1 µM | UACC-257 72.8 µM | UACC-62 43.3 µM | UO-31 64.4 µM
39.4 µM: HCT-15

O=CN1CCN(C(=O)c2ccco2)C1=S
7.83 µM: HCT-15
inactive: 786-0 3.13 µM | A498 16.5 µM | A549 11.3 µM | ACHN 10 µM | BT-549 5.5 µM | CAKI-1 5.38 µM | CCRF-CEM 3.7 µM | COLO 205 10.1 µM | DU-145 3.08 µM | EKVX 17.6 µM | HCT-116 12.2 µM | HL-60 3.46 µM | HOP-62 13.2 µM | HOP-92 4.12 µM | HT-29 11.3 µM | Hs-578T 22 µM | IGROV-1 9.38 µM | K562 3.25 µM | KM12 6.18 µM | LOX IMVI 3.72 µM | M14 8.85 µM | MCF7 2.7 µM | MDA-MB-231 17.3 µM | MDA-MB-435 5.13 µM | MDA-N 7.62 µM | MOLT-4 8.24 µM | Malme-3M 11.3 µM | NCI-H226 22.9 µM | NCI-H23 15.6 µM | NCI-H460 12.4 µM | NCI-H522 3.67 µM | NCI/ADR-RES 23.4 µM | OVCAR-3 4.39 µM | OVCAR-4 19.7 µM | OVCAR-5 19.4 µM | OVCAR-8 16 µM | PC-3 7.29 µM | RPMI-8226 2.24 µM | RXF 393 6.64 µM | SF-268 7.05 µM | SF-295 22.5 µM | SF-539 4.38 µM | SK-MEL-28 15.9 µM | SK-MEL-2 17.2 µM | SK-MEL-5 12.6 µM | SK-OV-3 24.3 µM | SN12C 4.01 µM | SNB-19 22.1 µM | SNB-75 12.5 µM | SR 2.11 µM | SW-620 5.82 µM | T47D 4.07 µM | TK-10 14.3 µM | U-251 13.9 µM | UACC-257 12.1 µM | UACC-62 8.04 µM | UO-31 4.49 µM

N#CC1C(=O)SC2c3ccccc3C(=O)c3ccccc3C12 (centres undefined)
inactive: 786-0 > 10 µM | A498 > 10 µM | A549 > 10 µM | ACHN > 10 µM | BT-549 > 10 µM | CAKI-1 > 10 µM | CCRF-CEM > 10 µM | COLO 205 > 10 µM | DU-145 > 10 µM | EKVX > 10 µM | HCC 2998 > 10 µM | HCT-116 > 10 µM | HL-60 > 10 µM | HOP-62 > 10 µM | HT-29 > 10 µM | Hs-578T > 10 µM | IGROV-1 > 10 µM | K562 > 10 µM | KM12 > 10 µM | LOX IMVI > 10 µM | M14 > 10 µM | MCF7 > 10 µM | MDA-MB-231 > 10 µM | MDA-MB-435 > 10 µM | MDA-N > 10 µM | MOLT-4 > 10 µM | Malme-3M > 10 µM | NCI-H226 > 10 µM | NCI-H23 > 10 µM | NCI-H460 > 10 µM | NCI/ADR-RES > 10 µM | OVCAR-3 > 10 µM | OVCAR-4 > 10 µM | OVCAR-5 > 10 µM | OVCAR-8 > 10 µM | PC-3 > 10 µM | RPMI-8226 > 10 µM | RXF 393 > 10 µM | SF-268 > 10 µM | SF-295 > 10 µM | SF-539 > 10 µM | SK-MEL-28 > 10 µM | SK-MEL-2 > 10 µM | SK-MEL-5 > 10 µM | SK-OV-3 > 10 µM | SN12C > 10 µM | SNB-19 > 10 µM | SNB-75 3.26 µM | SR > 10 µM | SW-620 > 10 µM | T47D > 10 µM | TK-10 > 10 µM | U-251 > 10 µM | UACC-257 > 10 µM | UACC-62 > 10 µM | UO-31 > 10 µM
> 10 µM: HCT-15
